Results taken from patent US11628148B2, “Nail hardening composition and method of use” (WELLA OPERATIONS US, LLC, priority 2017, dated 2023).

Tests used:
[1] = system: cow hoof samples; test: Three-point bend test (flexural strength) of cow hoof samples immersed 24 hours in test solution; conditions: for % Increase (flexural strength): only samples thinner than 1.8 mm; for FS (flexural strength): 24 h immersion
Experimental: 1. […] Pack samples in vacuum bag. 2. […] 3. […] Pack samples in vacuum bag. 4. Three-Point Bend Test for Untreated and Treated Cow Hoof Samples • Perform using a Texture Analyzer TAXT Plus from Texture Technologies. • Three point bend test is conducted until sample fracture. • Flexural strength is calculated based on force at break for each sample. Results A 3-point bend test set-up was used to measure the break force of treated and untreated cow hoof slices with thickness ranging from 0.88 mm to 2.75 mm. The flexural strength was calculated for each sample, based on sample thickness and width. For each group, the average flexural strength and the standard deviation were calculated. The p-value for the effect significance was calculated for each treated group versus the corresponding baseline value using ANOVA. Outliers were eliminated using the modified Thompson Tau method. Baseline values were determined for groups of untreated samples. Because the hypothesis is that the crosslinker reacts with thiol groups, the effect of dithiothreitol (DTT), a disulfide reducing agent, was tested as well.

[2] = Behaviour of the test solution at the highest concentration prepared; assay type: physicochemical; conditions: 3.5% (w/w) BMH in dimethyl sulfoxide

Hexamethylene diamine/Maleic acid [Hexamethylene diamine + Maleic acid]
% increase (flexural strength vs baseline) ([1]; 1% HMD + MA in ethanol, all samples): 13.4%
% Increase (flexural strength) ([1]; 1% HMD + MA): 20.2%
FS (flexural strength) ([1]; 1% by weight HMD + MA (1:2) in ethanol, all samples): 144 N/mm2
% increase (flexural strength vs baseline) ([1]; 3% HMD + MA in ethanol, all samples): 17.3%
% Increase (flexural strength) ([1]; 3% HMD + MA): 24.2%
FS (flexural strength) ([1]; 3% by weight HMD + MA (1:2) in ethanol, all samples): 149 N/mm2
% increase (flexural strength vs baseline) ([1]; 5% HMD + MA in ethanol, all samples): 17.3%
% Increase (flexural strength) ([1]; 5% HMD + MA): 28.2%
FS (flexural strength) ([1]; 5% by weight HMD + MA (1:2) in ethanol, all samples): 149 N/mm2
% increase (flexural strength vs baseline) ([1]; 7% HMD + MA in ethanol, all samples): 3.9%
FS (flexural strength) ([1]; 7% by weight HMD + MA (1:2) in ethanol, all samples): 132 N/mm2
Effect on flexural strength (in words) ([1]; HMD + MA (1:2 ratio) at 3% and 5% (w/w)): significant increase

C=O [Formaldehyde, formaldehyde]
FS (flexural strength) ([1]; 1% by weight formaldehyde in ethanol, all samples): 141 N/mm2
% increase (flexural strength vs baseline) ([1]; 1% formaldehyde in ethanol, all samples): 20.5%
% Increase (flexural strength) ([1]; 1% formaldehyde): 22.2%
FS (flexural strength) ([1]; 3% by weight formaldehyde in ethanol, all samples): 132 N/mm2
% increase (flexural strength vs baseline) ([1]; 3% formaldehyde in ethanol, all samples): 12.8%
% Increase (flexural strength) ([1]; 3% formaldehyde): 15.4%
FS (flexural strength) ([1]; 5% by weight formaldehyde in ethanol, all samples): 134 N/mm2
% increase (flexural strength vs baseline) ([1]; 5% formaldehyde in ethanol, all samples): 14.5%
% Increase (flexural strength) ([1]; 5% formaldehyde): 20.5%

NCCCCCCN [Hexamethylene diamine, hexamethylene diamine]
FS (flexural strength) ([1]; 1% by weight hexamethylene diamine alone in ethanol (equal. to 3% H + M)): 132 N/mm2
% increase (flexural strength vs baseline) ([1]; 1% hexamethylene diamine alone in ethanol (equal. to 3% H + M)): 3.9%
FS (flexural strength) ([1]; 1.7% by weight hexamethylene diamine alone in ethanol (equal. to 5% H + M)): 149 N/mm2
% increase (flexural strength vs baseline) ([1]; 1.7% hexamethylene diamine alone in ethanol (equal. to 5% H + M)): 17.3%
FS (flexural strength) ([1]; 2.3% by weight hexamethylene diamine alone in ethanol (equal. to 7% H + M)): 122 N/mm2
% increase (flexural strength vs baseline) ([1]; 2.3% hexamethylene diamine alone in ethanol (equal. to 7% H + M)): −3.9%
Effect on flexural strength (in words) ([1]; HMD taken separately at 1.7%): borderline significant strengthening effect

O[C@H](CS)[C@H](O)CS (racemic) [DTT, dithiothreitol]
Effect on flexural strength (in words) ([1]; disulfide reducing agent, results not shown): no significant effect

O=C(O)/C=C\C(=O)O [Maleic Acid, maleic acid]
FS (flexural strength) ([1]; 3.3% by weight maleic acid alone in ethanol (equ. to 5% H + M)): 131 N/mm2
% increase (flexural strength vs baseline) ([1]; 3.3% maleic acid alone in ethanol (equ. to 5% H + M)): 3.1%
Effect on flexural strength (in words) ([1]; MA taken separately): does not seem to have any significant effect

O=C1C=CC(=O)N1CCCCCCN1C(=O)C=CC1=O [Bismaleimidohexane, bismaleimidohexane]
Observation on the solution [2]: Gelification
Observation on the solution ([2]; listed as BMH): gelification
% increase (flexural strength vs baseline) ([1]; 1% BMH in dimethyl sulfoxide): 9.7%
FS (flexural strength) ([1]; 1% by weight BMH in dimethyl sulfoxide): 158 N/mm2
% increase (flexural strength vs baseline) ([1]; 3% BMH in dimethyl sulfoxide): 8.3%
FS (flexural strength) ([1]; 3% by weight BMH in dimethyl sulfoxide): 156 N/mm2
Effect on flexural strength (in words) ([1]; BMH at 1% and 3%): non-significant increase
